Results published in patent US9587005B2 (priority 2010, dated 2017).
Read-outs that look alike come from different tables or passages of the source. *1 amine or outer side, *2 acyl side, *3 side chain or, on linkers, in order; H or OH if unused. Where a SMILES comes first, the peptide text is derived from it. Where no end group is shown, it is not given here. Side-chain parts run from the residue outwards. [ ]: non-standard residue; d: D form. The star is where a group is joined. Phe(4-NH2) = Nc1ccc(C[C@H](N)C(=O)O)cc1; γGlu = O=C(O)[C@H](CCC(=O)[*:2])N[*:1]; X6 = CCCCCCCCCCCCCCCCC(CC(=O)*)C(=O)O; Palmitoyl = CCCCCCCCCCCCCCCC(=O)*; Aib = CC(C)(N)C(=O)O

Tests used:
Assay type in all cases: cell-based
GLP-1 receptor = biological target: T1, GLP-1 receptor (Homo sapiens, UniProt P43220); assay: cAMP induction, firefly luciferase reporter assay in HEK293 cells co-transfected with GLP-1 receptor
T1 construct: expressed in transfected cells; host or cells: HEK293
T1 sequence (P43220 24-463): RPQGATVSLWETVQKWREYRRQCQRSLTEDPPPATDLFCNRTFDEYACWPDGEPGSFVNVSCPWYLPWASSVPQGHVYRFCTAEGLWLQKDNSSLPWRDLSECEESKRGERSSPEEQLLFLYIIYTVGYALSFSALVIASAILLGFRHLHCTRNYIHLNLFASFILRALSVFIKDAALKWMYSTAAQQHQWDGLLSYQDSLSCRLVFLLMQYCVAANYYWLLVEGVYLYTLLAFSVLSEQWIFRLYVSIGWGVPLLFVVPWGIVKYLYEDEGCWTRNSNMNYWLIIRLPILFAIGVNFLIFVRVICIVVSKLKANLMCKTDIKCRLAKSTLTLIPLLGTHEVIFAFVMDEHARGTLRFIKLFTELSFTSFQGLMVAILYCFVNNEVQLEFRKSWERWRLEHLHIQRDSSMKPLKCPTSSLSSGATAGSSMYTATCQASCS
Description: (§1) This example describes an exemplary method of testing the biological activity of the peptides of the present disclosures, which method involves assaying cAMP synthesis.

glucagon receptor = biological target: T2, glucagon receptor (Homo sapiens, UniProt P47871); assay: cAMP induction, firefly luciferase reporter assay in HEK293 cells co-transfected with glucagon receptor
T2 construct: expressed in transfected cells; host or cells: HEK293
T2 sequence (P47871 26-477): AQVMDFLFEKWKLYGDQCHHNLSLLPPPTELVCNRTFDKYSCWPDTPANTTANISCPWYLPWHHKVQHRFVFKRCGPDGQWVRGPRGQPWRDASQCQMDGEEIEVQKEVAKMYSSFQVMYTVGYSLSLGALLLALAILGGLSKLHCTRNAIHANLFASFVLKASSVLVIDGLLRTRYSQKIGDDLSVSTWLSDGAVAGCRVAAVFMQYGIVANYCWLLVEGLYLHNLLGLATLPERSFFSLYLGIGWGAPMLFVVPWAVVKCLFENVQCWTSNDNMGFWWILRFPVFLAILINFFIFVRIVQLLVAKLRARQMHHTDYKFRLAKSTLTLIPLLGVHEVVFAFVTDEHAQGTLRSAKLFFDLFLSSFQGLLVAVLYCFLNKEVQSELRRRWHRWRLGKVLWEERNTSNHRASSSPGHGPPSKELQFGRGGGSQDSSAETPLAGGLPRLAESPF
Description: as §1

GIP receptor = biological target: T3, GIP receptor (Homo sapiens, UniProt P48546); assay: cAMP induction, firefly luciferase reporter assay in HEK293 cells co-transfected with GIP receptor
T3 sequence (P48546 22-466): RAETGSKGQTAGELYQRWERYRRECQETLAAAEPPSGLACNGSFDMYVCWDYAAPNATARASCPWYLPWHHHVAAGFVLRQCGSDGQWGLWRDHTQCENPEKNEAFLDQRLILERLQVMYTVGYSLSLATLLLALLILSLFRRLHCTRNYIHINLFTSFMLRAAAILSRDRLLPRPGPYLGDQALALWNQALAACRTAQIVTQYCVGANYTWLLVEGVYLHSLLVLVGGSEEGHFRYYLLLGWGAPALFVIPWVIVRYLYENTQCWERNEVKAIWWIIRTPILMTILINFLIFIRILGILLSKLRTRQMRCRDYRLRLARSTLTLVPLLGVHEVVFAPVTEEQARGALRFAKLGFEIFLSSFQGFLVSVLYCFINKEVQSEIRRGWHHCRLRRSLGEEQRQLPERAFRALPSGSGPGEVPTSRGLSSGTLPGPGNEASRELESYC

[1] = GLP-1 Receptor EC50, Table 10, Example 16
[2] = EC50 (nM) at glucagon receptor, Table 16, Example 24
[3] = Table 10, Example 16, read-out: GIP-1 Receptor EC50
[4] = Glucagon Receptor EC50, Table 10, Example 16

Molecule `CCCCCCCCCCCCCCCC(=O)N[C@@H](CCC(=O)NCCCC[C@H](NC(=O)[C@H](CC(=O)O)NC(=O)[C@H](CO)NC(=O)[C@@H](NC(=O)[C@H](Cc1ccccc1)NC(=O)[C@@H](NC(=O)CNC(=O)[C@H](CCC(N)=O)NC(=O)C(C)(C)NC(=O)[C@@H](N)Cc1c[nH]cn1)[C@@H](C)O)[C@@H](C)O)C(=O)N[C@@H](CO)C(=O)N[C@@H](CCCCN)C(=O)N[C@@H](Cc1ccc(O)cc1)C(=O)N[C@@H](CC(C)C)C(=O)N[C@@H](CC(=O)O)C(=O)N[C@@H](CCC(=O)O)C(=O)N[C@@H](CCCNC(=N)N)C(=O)N[C@@H](C)C(=O)N[C@@H](C)C(=O)N[C@@H](CCC(N)=O)C(=O)N[C@@H](CC(=O)O)C(=O)N[C@@H](Cc1ccccc1)C(=O)N[C@H](C(=O)N[C@@H](CCC(N)=O)C(=O)N[C@@H](Cc1c[nH]c2ccccc12)C(=O)N[C@@H](CC(C)C)C(=O)N[C@@H](CC(C)C)C(=O)N[C@@H](CC(=O)O)C(=O)NCC(=O)NCC(=O)N1CCC[C@H]1C(=O)N[C@@H](CO)C(=O)N[C@@H](CO)C(=O)NCC(=O)N[C@@H](C)C(=O)N1CCC[C@H]1C(=O)N1CCC[C@H]1C(=O)N1CCC[C@H]1C(=O)N[C@@H](CO)C(N)=O)C(C)C)C(=O)O` [SEQ ID NO: 28] has an EC50 (GLP-1 receptor; EC50 (nM) at GLP-1 receptor, Table 15, Example 23) of 0.002 nM, an EC50 (GLP-1 receptor; [1]) of 0.007 nM and an EC50 (GLP-1 receptor; Table 12, Example 19, read-out: EC50 (cAMP, nmole) GLPR) of 0.003 nM. It also gave an EC50 (glucagon receptor; EC50 (nM) at glucagon receptor, Table 15, Example 23) of 0.002 nM, an EC50 (glucagon receptor; [2]) of 0.003 nM and an EC50 (GIP receptor; EC50 (nM) at GIP receptor, Table 15, Example 23) of 0.002 nM. For the same molecule, the EC50 (GIP receptor; GIP (0.01), Table 8, Example 14, activity at the GIP receptor) was 0.003 nM, the EC50 (GIP receptor; [3]) was 0.003 nM and the EC50 (GIP receptor; Table 12, Example 19, read-out: EC50 (cAMP, nmole) GIPR) was 0.007 nM.

`CCCCCCCCCCCCCCCCC(CC(=O)Nc1ccc(C[C@H](NC(=O)[C@H](CC(=O)O)NC(=O)[C@H](CO)NC(=O)[C@@H](NC(=O)[C@H](Cc2ccccc2)NC(=O)[C@@H](NC(=O)CNC(=O)[C@H](CCC(=O)O)NC(=O)C(C)(C)NC(=O)[C@@H](N)Cc2ccc(O)cc2)[C@@H](C)O)[C@@H](C)O)C(=O)N[C@@H](CO)C(=O)N[C@H](C(=O)N[C@@H](Cc2ccc(O)cc2)C(=O)N[C@@H](CC(C)C)C(=O)N[C@@H](CC(=O)O)C(=O)N[C@@H](CCCCN)C(=O)N[C@@H](CCC(N)=O)C(=O)N[C@@H](C)C(=O)N[C@@H](C)C(=O)NC(C)(C)C(=O)N[C@@H](CCC(=O)O)C(=O)N[C@@H](Cc2ccccc2)C(=O)N[C@H](C(=O)N[C@@H](CC(N)=O)C(=O)N[C@@H](Cc2c[nH]c3ccccc23)C(=O)N[C@@H](CC(C)C)C(=O)N[C@@H](CC(C)C)C(=O)N[C@@H](C)C(=O)NCC(=O)NCC(=O)N2CCC[C@H]2C(=O)N[C@@H](CO)C(=O)N[C@@H](CO)C(=O)NCC(=O)N[C@@H](C)C(=O)N2CCC[C@H]2C(=O)N2CCC[C@H]2C(=O)N2CCC[C@H]2C(=O)N[C@@H](CO)C(N)=O)C(C)C)[C@@H](C)CC)cc1)C(=O)O` (stereo partly shown) [SEQ ID NO: 144] (H-Y[Aib]EGTFTSD[Phe(4-NH2)](X6)SIYLDKQAA[Aib]EFVNWLLAGGPSSGAPPPS-NH2; N-terminus assumed) showed an EC50 (GLP-1 receptor) of 0.004 nM, an EC50 (glucagon receptor) of over 0.5 nM and an EC50 (GIP receptor) of 0.013 nM.

Molecule `CCCCCCCCCCCCCCCC(=O)N[C@@H](CCC(=O)Nc1ccc(C[C@H](NC(=O)[C@@H](NC(=O)CNC(=O)[C@H](CCC(N)=O)NC(=O)C(C)(C)NC(=O)[C@@H](N)Cc2c[nH]cn2)[C@@H](C)O)C(=O)N[C@H](C(=O)N[C@@H](CO)C(=O)N[C@@H](CC(=O)O)C(=O)N[C@@H](Cc2ccc(O)cc2)C(=O)N[C@@H](CO)C(=O)N[C@@H](CCCCN)C(=O)N[C@@H](Cc2ccc(O)cc2)C(=O)N[C@@H](CC(C)C)C(=O)N[C@@H](CC(=O)O)C(=O)N[C@@H](CCC(=O)O)C(=O)N[C@@H](CCCNC(=N)N)C(=O)N[C@@H](C)C(=O)N[C@@H](C)C(=O)N[C@@H](CCC(N)=O)C(=O)N[C@@H](CC(=O)O)C(=O)N[C@@H](Cc2ccccc2)C(=O)N[C@H](C(=O)N[C@@H](CCC(N)=O)C(=O)N[C@@H](Cc2c[nH]c3ccccc23)C(=O)N[C@@H](CC(C)C)C(=O)N[C@@H](CC(C)C)C(=O)N[C@@H](CC(=O)O)C(=O)NCC(=O)NCC(=O)N2CCC[C@H]2C(=O)N[C@@H](CO)C(=O)N[C@@H](CO)C(=O)NCC(=O)N[C@@H](C)C(=O)N2CCC[C@H]2C(=O)N2CCC[C@H]2C(=O)N2CCC[C@H]2C(=O)N[C@@H](CO)C(N)=O)C(C)C)[C@@H](C)O)cc1)C(=O)O` [SEQ ID NO: 147] (H-H[Aib]QGT[Phe(4-NH2)]([γGlu-Palmitoyl])TSDYSKYLDERAAQDFVQWLLDGGPSSGAPPPS-NH2; N-terminus assumed) has an EC50 (GLP-1 receptor; [1]) of 0.004 nM, an EC50 (glucagon receptor; [4]) of 0.246 nM and an EC50 (GIP receptor; [3]) of 3.13 nM.

`CCCCCCCCCCCCCCCCC(CC(=O)Nc1ccc(C[C@H](NC(=O)[C@H](CC(=O)O)NC(=O)[C@H](CO)NC(=O)[C@@H](NC(=O)[C@H](Cc2ccccc2)NC(=O)[C@@H](NC(=O)CNC(=O)[C@H](CCC(N)=O)NC(=O)C(C)(C)NC(=O)[C@@H](N)Cc2c[nH]cn2)[C@@H](C)O)[C@@H](C)O)C(=O)N[C@@H](CO)C(=O)N[C@@H](CCCCN)C(=O)N[C@@H](Cc2ccc(O)cc2)C(=O)N[C@@H](CC(C)C)C(=O)N[C@@H](CC(=O)O)C(=O)N[C@@H](CCC(=O)O)C(=O)N[C@@H](CCCNC(=N)N)C(=O)N[C@@H](C)C(=O)N[C@@H](C)C(=O)N[C@@H](CCC(N)=O)C(=O)N[C@@H](CC(=O)O)C(=O)N[C@@H](Cc2ccccc2)C(=O)N[C@H](C(=O)N[C@@H](CCC(N)=O)C(=O)N[C@@H](Cc2c[nH]c3ccccc23)C(=O)N[C@@H](CC(C)C)C(=O)N[C@@H](CC(C)C)C(=O)N[C@@H](CC(=O)O)C(=O)NCC(=O)NCC(=O)N2CCC[C@H]2C(=O)N[C@@H](CO)C(=O)N[C@@H](CO)C(=O)NCC(=O)N[C@@H](C)C(=O)N2CCC[C@H]2C(=O)N2CCC[C@H]2C(=O)N2CCC[C@H]2C(=O)N[C@@H](CO)C(N)=O)C(C)C)cc1)C(=O)O` (stereo partly shown) [SEQ ID NO: 150] showed an EC50 (GLP-1 receptor) of 0.004 nM, an EC50 (glucagon receptor) of 0.006 nM and an EC50 (GIP receptor) of 0.141 nM.

Molecule `CCCCCCCCCCCCCCCC(=O)N[C@@H](CCC(=O)NCCCC[C@H](NC(=O)[C@H](CCCCN)NC(=O)[C@H](CO)NC(=O)[C@H](Cc1ccc(O)cc1)NC(=O)[C@H](CC(=O)O)NC(=O)[C@H](CO)NC(=O)[C@@H](NC(=O)[C@H](Cc1ccccc1)NC(=O)[C@@H](NC(=O)CNC(=O)[C@H](CCC(N)=O)NC(=O)C(C)(C)NC(=O)[C@@H](N)Cc1c[nH]cn1)[C@@H](C)O)[C@@H](C)O)C(=O)N[C@@H](CC(C)C)C(=O)N[C@@H](CC(=O)O)C(=O)N[C@@H](CCC(=O)O)C(=O)N[C@@H](CCCNC(=N)N)C(=O)N[C@@H](C)C(=O)N[C@@H](C)C(=O)N[C@@H](CCC(N)=O)C(=O)N[C@@H](CC(=O)O)C(=O)N[C@@H](Cc1ccccc1)C(=O)N[C@H](C(=O)N[C@@H](CCC(N)=O)C(=O)N[C@@H](Cc1c[nH]c2ccccc12)C(=O)N[C@@H](CC(C)C)C(=O)N[C@@H](CC(C)C)C(=O)N[C@@H](CC(=O)O)C(=O)NCC(=O)NCC(=O)N1CCC[C@H]1C(=O)N[C@@H](CO)C(=O)N[C@@H](CO)C(=O)NCC(=O)N[C@@H](C)C(=O)N1CCC[C@H]1C(=O)N1CCC[C@H]1C(=O)N1CCC[C@H]1C(=O)N[C@@H](CO)C(N)=O)C(C)C)C(=O)O` [SEQ ID NO: 151] (H-H[Aib]QGTFTSDYSKK([γGlu-Palmitoyl])LDERAAQDFVQWLLDGGPSSGAPPPS-NH2) has an EC50 (GLP-1 receptor; [1]) of 0.004 nM, an EC50 (glucagon receptor; [4]) of 0.008 nM and an EC50 (GIP receptor; [3]) of 0.309 nM.

Work on `CCCCCCCCCCCCCCCC(=O)N[C@@H](CCC(=O)N[C@@H](CCC(=O)NCCCC[C@H](NC(=O)[C@H](CC(=O)O)NC(=O)[C@H](CO)NC(=O)[C@@H](NC(=O)[C@H](Cc1ccccc1)NC(=O)[C@@H](NC(=O)CNC(=O)[C@H](CCC(N)=O)NC(=O)C(C)(C)NC(=O)[C@@H](N)Cc1c[nH]cn1)[C@@H](C)O)[C@@H](C)O)C(=O)N[C@@H](CO)C(=O)N[C@@H](CCCCN)C(=O)N[C@@H](Cc1ccc(O)cc1)C(=O)N[C@@H](CC(C)C)C(=O)N[C@@H](CC(=O)O)C(=O)NC(C)(C)C(=O)N[C@@H](CCCNC(=N)N)C(=O)N[C@@H](C)C(=O)N[C@@H](C)C(=O)N[C@@H](CCC(N)=O)C(=O)N[C@@H](CC(=O)O)C(=O)N[C@@H](Cc1ccccc1)C(=O)N[C@H](C(=O)N[C@@H](CCC(N)=O)C(=O)N[C@@H](Cc1c[nH]c2ccccc12)C(=O)N[C@@H](CC(C)C)C(=O)N[C@@H](CCSC)C(=O)N[C@@H](CC(=O)O)C(=O)NCC(=O)NCC(=O)N1CCC[C@H]1C(=O)N[C@@H](CO)C(=O)N[C@@H](CO)C(=O)NCC(=O)N[C@@H](C)C(=O)N1CCC[C@H]1C(=O)N1CCC[C@H]1C(=O)N1CCC[C@H]1C(=O)N[C@@H](CO)C(N)=O)C(C)C)C(=O)O)C(=O)O` [compound 33] (H-H[Aib]QGTFTSDK([γGlu-γGlu-Palmitoyl])SKYLD[Aib]RAAQDFVQWLMDGGPSSGAPPPS-NH2) yielded an EC50 (GLP-1 receptor; EC50 (nM) at GLP-1 Receptor, Table 4, Example 9, composite of multiple different activity assays) of 0.004 nM and an EC50 (glucagon receptor; EC50 (nM) at Glucagon Receptor, Table 4, Example 9, composite of multiple different activity assays) of 0.005 nM.

With “H[Aib]QGTFTSDYSKYLDERAAQDFVQWLLDAGPSSGAPPPSK([γGlu-γGlu-Palmitoyl])G-NH2 [SEQ ID NO: 204]” the EC50 (GLP-1 receptor; EC50 (nM) at GLP-1 receptor, Table 16, Example 24) was 0.001 nM and the EC50 (glucagon receptor; [2]) was 0.003 nM.
